Measurements as given in ChEMBL document CHEMBL2311409, “Design, synthesis and biological evaluation of coumarin alkylamines as potent and selective dual binding site inhibitors of acetylcholinesterase” (Bioorg Med Chem, 2013).

What was measured:
[1] = target: T1, Acetylcholinesterase (Bos taurus, UniProt P23795)
T1 sequence (P23795 whole entry): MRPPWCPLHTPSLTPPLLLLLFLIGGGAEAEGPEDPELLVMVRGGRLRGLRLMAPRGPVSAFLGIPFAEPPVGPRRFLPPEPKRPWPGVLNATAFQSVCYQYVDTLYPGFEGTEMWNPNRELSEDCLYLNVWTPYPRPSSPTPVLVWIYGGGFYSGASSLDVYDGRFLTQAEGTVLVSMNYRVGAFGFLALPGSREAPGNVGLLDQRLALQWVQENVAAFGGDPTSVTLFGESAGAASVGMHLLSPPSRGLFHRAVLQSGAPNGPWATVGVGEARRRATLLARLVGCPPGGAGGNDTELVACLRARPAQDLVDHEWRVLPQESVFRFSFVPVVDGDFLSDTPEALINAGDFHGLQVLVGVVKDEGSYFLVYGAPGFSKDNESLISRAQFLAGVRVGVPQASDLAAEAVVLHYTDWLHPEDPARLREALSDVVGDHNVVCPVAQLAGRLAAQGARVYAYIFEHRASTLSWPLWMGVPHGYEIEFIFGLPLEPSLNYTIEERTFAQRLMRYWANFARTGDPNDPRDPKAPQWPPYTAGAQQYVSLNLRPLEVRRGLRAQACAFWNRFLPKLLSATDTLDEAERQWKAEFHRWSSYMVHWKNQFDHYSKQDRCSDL
Description: Inhibition of bovine acetylcholinesterase using acetylcholine iodide as substrate incubated for 20 mins prior to substrate addition measured after 3 mins by Ellman's method

[2] = target: Cholinesterase (Equus caballus) (UniProt P81908); assay: Inhibition of equine butyrylcholinesterase using butyrylthiocholine as substrate at 10 uM incubated for 20 mins prior to substrate addition measured after 3 mins by Ellman's method
Chain of Cholinesterase (Equus caballus) (P81908 whole entry): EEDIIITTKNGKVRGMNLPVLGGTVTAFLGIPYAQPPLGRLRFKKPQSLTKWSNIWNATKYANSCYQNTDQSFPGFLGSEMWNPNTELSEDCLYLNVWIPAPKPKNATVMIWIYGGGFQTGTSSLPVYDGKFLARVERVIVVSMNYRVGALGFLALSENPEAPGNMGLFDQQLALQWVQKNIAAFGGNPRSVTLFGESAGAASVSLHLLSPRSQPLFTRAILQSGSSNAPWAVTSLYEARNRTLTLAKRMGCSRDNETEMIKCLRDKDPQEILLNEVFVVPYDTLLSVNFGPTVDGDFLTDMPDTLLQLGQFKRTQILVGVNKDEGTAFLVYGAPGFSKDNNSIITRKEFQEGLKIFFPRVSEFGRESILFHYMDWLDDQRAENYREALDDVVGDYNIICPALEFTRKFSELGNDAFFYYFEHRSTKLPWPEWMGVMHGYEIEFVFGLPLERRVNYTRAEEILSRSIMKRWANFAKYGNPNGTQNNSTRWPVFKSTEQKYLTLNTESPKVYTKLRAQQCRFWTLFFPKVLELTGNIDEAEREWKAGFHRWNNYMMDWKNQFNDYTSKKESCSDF

[3] = target: T1, Acetylcholinesterase; assay: Mixed-type reversible inhibition of bovine acetylcholinesterase using S-acetylthiocholine as substrate incubated for 20 mins prior to substrate addition measured after 3 mins by Lineweaver-Burk plot analysis
[4] = target: Acetylcholinesterase (Homo sapiens, UniProt P22303); assay: Inhibition of human acetylcholinesterase
Chain of Acetylcholinesterase (Homo sapiens, UniProt P22303) (P22303 whole entry): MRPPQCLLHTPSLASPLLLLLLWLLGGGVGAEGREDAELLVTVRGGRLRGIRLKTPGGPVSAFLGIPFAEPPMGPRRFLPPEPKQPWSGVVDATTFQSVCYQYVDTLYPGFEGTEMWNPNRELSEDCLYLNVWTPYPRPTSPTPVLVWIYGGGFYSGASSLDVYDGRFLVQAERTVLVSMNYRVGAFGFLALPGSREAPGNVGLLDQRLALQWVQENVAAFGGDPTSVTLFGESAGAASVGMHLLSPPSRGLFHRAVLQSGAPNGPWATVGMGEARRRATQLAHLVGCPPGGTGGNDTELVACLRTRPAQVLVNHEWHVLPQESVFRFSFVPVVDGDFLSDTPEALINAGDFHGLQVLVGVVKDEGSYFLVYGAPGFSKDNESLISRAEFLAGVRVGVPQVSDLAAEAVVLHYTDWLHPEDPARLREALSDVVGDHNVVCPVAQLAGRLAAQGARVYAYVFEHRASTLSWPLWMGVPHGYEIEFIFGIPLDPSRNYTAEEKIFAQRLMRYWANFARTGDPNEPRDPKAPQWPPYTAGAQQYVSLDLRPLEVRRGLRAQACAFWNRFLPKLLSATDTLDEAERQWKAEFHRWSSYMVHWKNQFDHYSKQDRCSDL

[5] = target: Cholinesterase (Equus caballus, UniProt P81908)
Chain of Cholinesterase (P81908 whole entry): as the sequence (P81908 whole entry) above
Description: Inhibition of equine butyrylcholinesterase using butyrylthiocholine as substrate incubated for 20 mins prior to substrate addition measured after 3 mins by Ellman's method

SMILES	IC50 [1]	inhibition [2]	Ki [3]	IC50 [4]	IC50 [5]
COc1cc2cc(C(=O)OCCCN(C)Cc3ccccc3)c(=O)oc2cc1OC	111 nM	38%	–	–	–
COc1cc2cc(NC(=O)CCN(C)Cc3ccccc3)c(=O)oc2cc1OC	14000 nM	0%	–	–	–
COc1cc2cc(NC(=O)[C@H]3CCC[C@@H](NCc4ccccc4)C3)c(=O)oc2cc1OC (relative stereo)	7.6 nM	–	8.6 nM	43 nM	33 µM
COc1ccc2oc(=O)c(OC3CCN(Cc4ccccc4)CC3)cc2c1	7400 nM	34%	–	–	–
COc1cc2cc(C(=O)NC3CCN(Cc4ccccc4)CC3)c(=O)oc2cc1OC	28 nM	19%	–	–	–
COc1cc2cc(C(=O)N3CCN(Cc4ccccc4)CC3)c(=O)oc2cc1OC	4000 nM	12%	–	–	–
COc1cc2cc(OCC3CCN(Cc4ccccc4)CC3)c(=O)oc2cc1OC	21 nM	–	–	–	3.9 µM
O=c1oc2ccccc2cc1OC1CCN(Cc2ccccc2)CC1	4500 nM	–	–	–	7.9 µM
COc1cc2cc(C(=O)NCCN(C)Cc3ccccc3)c(=O)oc2cc1OC	9000 nM	15%	–	–	–
CN(CCCOc1cc2ccccc2oc1=O)Cc1ccccc1	4500 nM	–	–	–	4 µM
COc1cc2cc(NC(=O)CN(C)Cc3ccccc3)c(=O)oc2cc1OC	26000 nM	11%	–	–	–
COc1cc2cc(C(=O)OC3CCN(Cc4ccccc4)CC3)c(=O)oc2cc1OC	14 nM	12%	–	–	–
COc1cc2cc(C(=O)OCC3CCN(Cc4ccccc4)CC3)c(=O)oc2cc1OC	73 nM	–	–	–	4.7 µM
COc1ccc2cc(OC3CCN(Cc4ccccc4)CC3)c(=O)oc2c1	12000 nM	46%	–	–	–
COc1cc2cc(OC3CCN(Cc4ccccc4)CC3)c(=O)oc2cc1OC	1500 nM	36%	–	–	–
COc1cc2cc(NC(=O)CCCN(C)Cc3ccccc3)c(=O)oc2cc1OC	330 nM	43%	–	–	–
COc1cc2cc(C(=O)NCCCN(C)Cc3ccccc3)c(=O)oc2cc1OC	86 nM	24%	–	–	–
CN(CCC(=O)Nc1cc2ccccc2oc1=O)Cc1ccccc1	66000 nM	0%	–	–	–
COc1cc2cc(C(=O)NCCCCN(C)Cc3ccccc3)c(=O)oc2cc1OC	21 nM	23%	–	–	–
